Assay results published in patent US20240409585A1, “MACROCYCLIC IMMUNOMODULATORS” (priority 2021, published 2024).
Numbered stars: 1 amine (or outer) side, 2 acyl side, 3 side chain; on linkers, the order of the positions; unused ones are H or OH. Bridge positions count the residues as written; N and C are the ends. Square brackets hold non-standard residues; d marks the D form. Peptide text beside a SMILES is read from it. * marks the point of attachment. ξ: configuration not given here. X30 = CCOc1cccc(-c2ccc(C[C@H](N[*:1])C(=O)[*:2])cc2)c1; Phe(3-allyloxy) = C=CCOc1cccc(C[C@H](N)C(=O)O)c1; Phe(3-CF3) = N[C@@H](Cc1cccc(C(F)(F)F)c1)C(=O)O; Phe(4-COOH) = N[C@@H](Cc1ccc(C(=O)O)cc1)C(=O)O; Bip = N[C@@H](Cc1ccc(-c2ccccc2)cc1)C(=O)O; dPhe(4-NH2) = Nc1ccc(C[C@@H](N)C(=O)O)cc1; Phe(3-Cl) = N[C@@H](Cc1cccc(Cl)c1)C(=O)O; Phe(3-Me) = Cc1cccc(C[C@H](N)C(=O)O)c1; Bta = N[C@@H](Cc1csc2ccccc12)C(=O)O; Val(3-OH) = CC(C)(O)[C@H](N)C(=O)O; Cha = N[C@@H](CC1CCCCC1)C(=O)O; Cit = NC(=O)NCCC[C@H](N)C(=O)O; Ile(3ξ) = CCC(C)[C@H](N)C(=O)O; Thr(3ξ) = CC(O)[C@H](N)C(=O)O; Carboxymethyl = O=C(O)C*; NMeA = CN[C@@H](C)C(=O)O; Orn = NCCC[C@H](N)C(=O)O; Pra = C#CC[C@H](N)C(=O)O; Dab = NCC[C@H](N)C(=O)O; Dap = NC[C@H](N)C(=O)O

biological target: T1, PE-labeled human PD-L1-Ig binding to Jurkat cell line over-expressing human PD-1 (Jurkat-PD-1) (Homo sapiens, UniProt Q15116); assay: Jurkat-PD-1 Cell Binding High-Content Screening Assay (CBA): Method 1; settings: Jurkat-hPD-1 cells, PE-labeled PD-L1-Ig 20 nM final; read-out: Jurkat HPDL1 PD1 IC50 (uM) (Method 1)
T1 construct: expressed in transfected cells; host or cells: Jurkat
T1 sequence (Q15116 25-288): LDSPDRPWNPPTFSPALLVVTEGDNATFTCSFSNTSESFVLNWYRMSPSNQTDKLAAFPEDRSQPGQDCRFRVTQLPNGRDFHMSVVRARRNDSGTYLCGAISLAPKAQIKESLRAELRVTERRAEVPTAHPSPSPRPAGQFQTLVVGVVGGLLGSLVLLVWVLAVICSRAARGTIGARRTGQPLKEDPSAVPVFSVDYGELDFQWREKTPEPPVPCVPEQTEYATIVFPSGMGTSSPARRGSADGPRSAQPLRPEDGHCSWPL

| SMILES | IC50 [µM] |
| --- | --- |
| CC(C)C[C@@H]1NC(=O)[C@H](CCN)NC(=O)[C@H](Cc2csc3ccccc23)NC(=O)[C@H](C)N(C)C(=O)[C@H](CCCN)NC(=O)[C@H](Cc2ccc(-c3ccccc3)cc2)NC(=O)[C@H](C(C)C)NC(=O)[C@H](Cc2c[nH]c3ccccc23)NC(=O)[C@H](CC(=O)O)NC(=O)[C@H](Cc2ccc(O)cc2)NC(=O)[C@H](Cc2ccccc2)NC(=O)CSC[C@@H](C(=O)N[C@@H](C)C(N)=O)NC(=O)[C@H]([C@@H](C)O)NC(=O)[C@H](C(C)C)NC1=O [Compound 1122] ({CH2CO}-FYDWV[Bip][Orn][NMeA][Bta][Dab]LVTCA-NH2; thioether N-14) | 0.24 |
| CCOc1cccc(-c2ccc(C[C@@H]3NC(=O)[C@H](C(C)C)NC(=O)[C@H](Cc4c[nH]c5ccccc45)NC(=O)[C@H](CC(=O)O)NC(=O)[C@H](Cc4ccc(O)cc4)NC(=O)[C@H](CC(N)=O)NC(=O)CSC[C@@H](C(=O)N[C@@H](C)C(N)=O)NC(=O)[C@H]([C@@H](C)O)NC(=O)[C@H](C(C)C)NC(=O)[C@H](CC(C)C)NC(=O)[C@H](CCN)NC(=O)[C@@H](CC(C)C)NC(=O)[C@H](C)N(C)C(=O)[C@H](CCCNC(=N)N)NC3=O)cc2)c1 [Compound 1221] ({CH2CO}-NYDWV[X30]R[NMeA][dL][Dab]LVTCA-NH2; thioether N-14) | 0.22 |
| Cc1cccc(C[C@@H]2NC(=O)[C@H](CC(=O)O)NC(=O)[C@H](Cc3ccc(OCC(=O)O)cc3)NC(=O)[C@H]([C@@H](C)O)NC(=O)CSC[C@@H](C(N)=O)NC(=O)[C@H](CC(N)=O)NC(=O)[C@H](C(C)C)NC(=O)[C@H](CC3CCCCC3)NC(=O)[C@H](CCN)NC(=O)[C@@H](CC(C)C)NC(=O)[C@H](C)N(C)C(=O)[C@H](Cc3ccc(OCC(=O)O)cc3)NC(=O)[C@H](Cc3ccc(-c4ccccc4)cc3)NC(=O)[C@H](Cc3ccc(OCC(=O)O)cc3)NC2=O)c1 [Compound 1669] ({CH2CO}-TY(Carboxymethyl)D[Phe(3-Me)]Y(Carboxymethyl)[Bip]Y(Carboxymethyl)[NMeA][dL][Dab][Cha]VNC-NH2; thioether N-14) | 0.06 |
| CC(C)C[C@@H]1NC(=O)[C@H](CCN)NC(=O)[C@@H](CC(C)C)NC(=O)[C@H](C)N(C)C(=O)[C@H](C(C)C)NC(=O)[C@H](Cc2ccc(-c3ccccc3)cc2)NC(=O)[C@H](C(C)C)NC(=O)[C@H](Cc2c[nH]c3ccccc23)NC(=O)[C@H](CC(=O)O)NC(=O)[C@H](Cc2ccc(C(=O)O)cc2)NC(=O)[C@H](CC(N)=O)NC(=O)CSC[C@@H](C(=O)N[C@@H](C)C(N)=O)NC(=O)[C@H]([C@@H](C)O)NC(=O)[C@H](C(C)C)NC1=O [Compound 1378] ({CH2CO}-N[Phe(4-COOH)]DWV[Bip]V[NMeA][dL][Dab]LVTCA-NH2; thioether N-14) | 0.01 |
| CC(C)C[C@@H]1NC(=O)[C@H](CCN)NC(=O)[C@@H](CC(C)C)NC(=O)[C@H](C)N(C)C(=O)[C@H](CCCNC(N)=O)NC(=O)[C@H](Cc2ccc(-c3ccccc3)cc2)NC(=O)[C@H](C(C)C)NC(=O)[C@H](Cc2cccc(Cl)c2)NC(=O)[C@H](CC(=O)O)NC(=O)[C@H](Cc2ccc(O)cc2)NC(=O)[C@H](CC(N)=O)NC(=O)CSC[C@@H](C(=O)N[C@@H](C)C(N)=O)NC(=O)[C@H]([C@@H](C)O)NC(=O)[C@H](C(C)C)NC1=O [Compound 1190] ({CH2CO}-NYD[Phe(3-Cl)]V[Bip][Cit][NMeA][dL][Dab]LVTCA-NH2; thioether N-14) | 0.02 |
| CC(C)C[C@@H]1NC(=O)[C@H](CCCNC(=N)N)NC(=O)[C@@H](Cc2ccc(N)cc2)NC(=O)[C@H](C)N(C)C(=O)[C@H](CCCNC(=N)N)NC(=O)[C@H](Cc2ccc(-c3ccccc3)cc2)NC(=O)[C@H](C(C)C)NC(=O)[C@H](Cc2c[nH]c3ccccc23)NC(=O)[C@H](CC(=O)O)NC(=O)[C@H](Cc2ccc(O)cc2)NC(=O)[C@H](Cc2ccccc2)NC(=O)CSC[C@@H](C(=O)N[C@@H](C)C(N)=O)NC(=O)[C@H]([C@@H](C)O)NC(=O)[C@H](C(C)C)NC1=O [Compound 1087] ({CH2CO}-FYDWV[Bip]R[NMeA][dPhe(4-NH2)]RLVTCA-NH2; thioether N-14) | 0.33 |
| CC(C)C[C@@H]1NC(=O)[C@H](CCN)NC(=O)[C@@H](CC(C)C)NC(=O)[C@H](C)N(C)C(=O)[C@H](CCCNC(=N)N)NC(=O)[C@H](Cc2ccc(-c3ccccc3)cc2)NC(=O)[C@H](C(C)C)NC(=O)[C@H](Cc2c[nH]c3ccccc23)NC(=O)[C@H](CC(=O)O)NC(=O)[C@H](Cc2ccc(C(=O)O)cc2)NC(=O)[C@H](CN)NC(=O)CSC[C@@H](C(=O)N[C@@H](C)C(N)=O)NC(=O)[C@H]([C@@H](C)O)NC(=O)[C@H](C(C)C)NC1=O [Compound 1451] ({CH2CO}-[Dap][Phe(4-COOH)]DWV[Bip]R[NMeA][dL][Dab]LVTCA-NH2; thioether N-14) | 0.08 |

Results, then the compound that gave them:

| IC50 [µM] | SMILES |
| --- | --- |
| 0.02 | CCC(C)[C@@H]1NC(=O)[C@H](Cc2ccc(-c3ccccc3)cc2)NC(=O)[C@H](C(C)C)NC(=O)[C@H](Cc2c[nH]c3ccccc23)NC(=O)[C@H](CC(=O)O)NC(=O)[C@H](Cc2ccc(C(=O)O)cc2)NC(=O)[C@H](Cc2ccc(OCC(=O)O)cc2)NC(=O)CSC[C@@H](C(=O)NCC(=O)N[C@@H](CN)C(=O)O)NC(=O)[C@H](C(C)O)NC(=O)[C@H](C(C)C)NC(=O)[C@H](CC2CCCCC2)NC(=O)[C@H](CC(N)=O)NC(=O)[C@@H](CC(C)C)NC(=O)[C@H](C)N(C)C1=O (stereo partly drawn) [Compound 2005] ({CH2CO}-Y(Carboxymethyl)[Phe(4-COOH)]DWV[Bip][Ile(3ξ)][NMeA][dL]N[Cha]V[Thr(3ξ)]CG[Dap]-OH; thioether N-14) |
| 0.08 | CC(C)C[C@@H]1NC(=O)[C@H](Cc2c[nH]c3ccccc23)NC(=O)[C@H](CC(=O)O)NC(=O)[C@H](Cc2ccc(C(=O)O)cc2)NC(=O)[C@H](Cc2ccc(OCC(=O)O)cc2)NC(=O)CSC[C@@H](C(N)=O)NC(=O)[C@H](CO)NC(=O)[C@H](C(C)C)NC(=O)[C@H](CC2CCCCC2)NC(=O)[C@H](Cc2cnc[nH]2)NC(=O)[C@@H](CC(C)C)NC(=O)[C@H](C)N(C)C(=O)[C@H](C(C)C)NC(=O)[C@H](Cc2ccc(-c3ccccc3)cc2)NC1=O [Compound 2252] ({CH2CO}-Y(Carboxymethyl)[Phe(4-COOH)]DWL[Bip]V[NMeA][dL]H[Cha]VSC-NH2; thioether N-14) |
| 0.34 | C#CC[C@H](NC(=O)CNC(=O)[C@@H]1CSCC(=O)N[C@@H]([C@@H](C)O)C(=O)N[C@@H](Cc2ccc(OCC(=O)O)cc2)C(=O)N[C@@H](CC(=O)O)C(=O)N[C@@H](Cc2cccc(C)c2)C(=O)N[C@@H](Cc2ccc(OCC(=O)O)cc2)C(=O)N[C@@H](Cc2ccc(-c3ccccc3)cc2)C(=O)N[C@@H](Cc2ccc(OCC(=O)O)cc2)C(=O)N(C)[C@@H](C)C(=O)N[C@H](CC(C)C)C(=O)N[C@@H](CCN)C(=O)N[C@@H](CC2CCCCC2)C(=O)N[C@@H](C(C)(C)O)C(=O)N[C@@H](CCC(=O)O)C(=O)N1)C(=O)O [Compound 1938] ({CH2CO}-TY(Carboxymethyl)D[Phe(3-Me)]Y(Carboxymethyl)[Bip]Y(Carboxymethyl)[NMeA][dL][Dab][Cha][Val(3-OH)]ECG[Pra]-OH; thioether N-14) |
| 0.16 | CC(=O)NCCCC[C@@H]1NC(=O)[C@H](Cc2ccc(-c3ccccc3)cc2)NC(=O)[C@H](Cc2ccc(O)cc2)NC(=O)[C@H](Cc2c[nH]c3ccccc23)NC(=O)[C@H](CC(=O)O)NC(=O)[C@H](Cc2ccc(OCC(=O)O)cc2)NC(=O)[C@H](C(C)O)NC(=O)CSC[C@@H](C(N)=O)NC(=O)[C@H](C(C)O)NC(=O)[C@H](C(C)C)NC(=O)[C@H](CC2CCCCC2)NC(=O)[C@H](CCN)NC(=O)[C@@H](CC(C)C)NC(=O)[C@H](C)N(C)C1=O (stereo partly drawn) [Compound 2254] ({CH2CO}-[Thr(3ξ)]Y(Carboxymethyl)DWY[Bip]K(Ac)[NMeA][dL][Dab][Cha]V[Thr(3ξ)]C-NH2; thioether N-14) |
| 0.09 | CC(C)C[C@@H]1NC(=O)[C@H](Cc2c[nH]c3ccccc23)NC(=O)[C@H](CC(=O)O)NC(=O)[C@H](Cc2ccc(O)cc2)NC(=O)[C@H](Cc2ccccc2)NC(=O)CSC[C@@H](C(=O)N[C@@H](C)C(N)=O)NC(=O)[C@H](CO)NC(=O)[C@H](C(C)C)NC(=O)[C@H](CC(C)C)NC(=O)[C@H](CC(N)=O)NC(=O)[C@@H](Cc2ccccc2)NC(=O)[C@H](C)N(C)C(=O)[C@H](C(C)C)NC(=O)[C@H](Cc2ccc(-c3ccccc3)cc2)NC1=O [Compound 1783] ({CH2CO}-FYDWL[Bip]V[NMeA][dF]NLVSCA-NH2; thioether N-14) |
| 0.02 | CCC(C)[C@@H]1NC(=O)[C@H](Cc2ccc(-c3ccccc3)cc2)NC(=O)[C@H](CC(C)C)NC(=O)[C@H](Cc2c[nH]c3ccccc23)NC(=O)[C@H](CC(=O)O)NC(=O)[C@H](Cc2ccc(C(=O)O)cc2)NC(=O)[C@H](Cc2ccc(OCC(=O)O)cc2)NC(=O)CSC[C@@H](C(=O)N[C@@H](CC(N)=O)C(N)=O)NC(=O)[C@H](CO)NC(=O)[C@H](C(C)C)NC(=O)[C@H](CC2CCCCC2)NC(=O)[C@H](CCN)NC(=O)[C@@H](CC(C)C)NC(=O)[C@H](C)N(C)C1=O (stereo partly drawn) [Compound 1923] ({CH2CO}-Y(Carboxymethyl)[Phe(4-COOH)]DWL[Bip][Ile(3ξ)][NMeA][dL][Dab][Cha]VSCN-NH2; thioether N-14) |
| 0.04 | C=CCOc1cccc(C[C@@H]2NC(=O)[C@H](Cc3ccccc3)NC(=O)CSC[C@@H](C(=O)N[C@@H](C)C(N)=O)NC(=O)[C@H](CO)NC(=O)[C@H](C(C)C)NC(=O)[C@H](CC(C)C)NC(=O)[C@H](CC(N)=O)NC(=O)[C@@H](C)NC(=O)[C@H](C)N(C)C(=O)[C@H](C(C)C)NC(=O)[C@H](Cc3ccc(-c4ccccc4)cc3)NC(=O)[C@H](CC(C)C)NC(=O)[C@H](Cc3c[nH]c4ccccc34)NC(=O)[C@H](CC(=O)O)NC2=O)c1 [Compound 1772] ({CH2CO}-F[Phe(3-allyloxy)]DWL[Bip]V[NMeA][dA]NLVSCA-NH2; thioether N-14) |
| 0.06 | CC(C)C[C@@H]1NC(=O)[C@H](Cc2c[nH]c3ccccc23)NC(=O)[C@H](CC(=O)O)NC(=O)[C@H](Cc2cccc(C(F)(F)F)c2)NC(=O)[C@H](Cc2ccccc2)NC(=O)CSC[C@@H](C(=O)N[C@@H](C)C(N)=O)NC(=O)[C@H](CO)NC(=O)[C@H](C(C)C)NC(=O)[C@H](CC(C)C)NC(=O)[C@H](CC(N)=O)NC(=O)[C@@H](C)NC(=O)[C@H](C)N(C)C(=O)[C@H](C(C)C)NC(=O)[C@H](Cc2ccc(-c3ccccc3)cc2)NC1=O [Compound 1777] ({CH2CO}-F[Phe(3-CF3)]DWL[Bip]V[NMeA][dA]NLVSCA-NH2; thioether N-14) |
